The nature of data set [1]: Antiplatelet activity in human platelet rich plasma assessed as inhibition of ADP-induced platelet aggregation. It is filed as functional, cell-free.
Data set [2] in a line: Cmax in fasted dog at 0.5 mg/kg, po. The following applies: in vivo. The arrangement: dose 0.5 mg/kg, route oral. It is filed as ADME, organism-based, Canis lupus familiaris.
The nature of data set [3]: Oral bioavailability in fasted dog at 0.5 mg/kg. It is filed as ADME, organism-based, Canis lupus familiaris. The note with it: in vivo.
A further data set addresses Prostacyclin receptor (Homo sapiens, UniProt P43119). The experiment in a line: Binding affinity to human IP receptor.
Data set [4] deals with Prostaglandin E2 receptor EP2 subtype (Homo sapiens, UniProt P43116). Kind of data set: Binding affinity to human EP2 receptor.
Prostaglandin E2 receptor EP2 subtype, sequence (P43116 whole entry): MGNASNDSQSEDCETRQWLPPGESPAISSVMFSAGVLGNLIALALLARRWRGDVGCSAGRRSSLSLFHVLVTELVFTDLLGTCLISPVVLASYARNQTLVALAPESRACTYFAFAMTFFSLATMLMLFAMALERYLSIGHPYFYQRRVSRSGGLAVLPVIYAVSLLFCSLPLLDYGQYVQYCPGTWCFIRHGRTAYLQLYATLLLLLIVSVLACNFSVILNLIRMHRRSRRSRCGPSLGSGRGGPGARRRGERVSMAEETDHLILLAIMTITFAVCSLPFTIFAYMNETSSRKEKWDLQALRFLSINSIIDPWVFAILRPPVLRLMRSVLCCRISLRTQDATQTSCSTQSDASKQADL
For data set [5], the target named is T1, Prostaglandin E2 receptor EP3 subtype (Homo sapiens, UniProt P43115).
T1 sequence (P43115 whole entry): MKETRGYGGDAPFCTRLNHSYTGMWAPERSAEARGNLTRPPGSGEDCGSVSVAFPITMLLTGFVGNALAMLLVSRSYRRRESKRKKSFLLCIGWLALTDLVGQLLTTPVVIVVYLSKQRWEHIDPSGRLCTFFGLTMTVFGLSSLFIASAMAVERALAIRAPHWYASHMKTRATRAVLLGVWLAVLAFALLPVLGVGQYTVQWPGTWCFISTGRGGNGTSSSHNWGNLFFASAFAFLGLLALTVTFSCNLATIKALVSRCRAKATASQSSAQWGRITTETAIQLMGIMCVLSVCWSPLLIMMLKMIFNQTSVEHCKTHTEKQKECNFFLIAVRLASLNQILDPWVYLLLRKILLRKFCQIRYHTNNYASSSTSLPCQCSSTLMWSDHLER
Kind of data set: Binding affinity to human EP3 receptor.

Data set [6] addresses Prostaglandin E2 receptor EP4 subtype (Homo sapiens, UniProt P35408). The experiment in a line: Binding affinity to human EP4 receptor.
The target in data set [7] is Prostaglandin F2-alpha receptor (Homo sapiens, UniProt P43088). Kind of data set: Binding affinity to human FP receptor.
Prostaglandin F2-alpha receptor, sequence (P43088 whole entry): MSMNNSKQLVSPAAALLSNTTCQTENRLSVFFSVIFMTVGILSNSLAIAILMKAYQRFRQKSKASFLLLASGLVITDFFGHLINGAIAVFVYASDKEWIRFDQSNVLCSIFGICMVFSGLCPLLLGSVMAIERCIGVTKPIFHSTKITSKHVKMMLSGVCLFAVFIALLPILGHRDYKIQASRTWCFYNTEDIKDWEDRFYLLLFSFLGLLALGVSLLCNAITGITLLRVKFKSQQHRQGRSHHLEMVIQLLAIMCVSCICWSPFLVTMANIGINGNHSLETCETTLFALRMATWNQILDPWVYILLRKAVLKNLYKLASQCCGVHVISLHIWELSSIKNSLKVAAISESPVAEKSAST
The target in the next data set is T2, Thromboxane A2 receptor (Homo sapiens, UniProt P21731).
T2 sequence (P21731 whole entry): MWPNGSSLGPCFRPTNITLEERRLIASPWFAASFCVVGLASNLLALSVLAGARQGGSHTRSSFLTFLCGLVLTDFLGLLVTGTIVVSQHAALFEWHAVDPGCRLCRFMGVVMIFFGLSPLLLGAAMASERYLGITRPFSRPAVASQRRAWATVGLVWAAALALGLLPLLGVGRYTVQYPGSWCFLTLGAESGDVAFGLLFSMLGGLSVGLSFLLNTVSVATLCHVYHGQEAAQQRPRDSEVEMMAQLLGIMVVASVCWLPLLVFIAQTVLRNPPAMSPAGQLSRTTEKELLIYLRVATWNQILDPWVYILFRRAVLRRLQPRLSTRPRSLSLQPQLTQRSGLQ
The experiment in a line: Binding affinity to human TP receptor.

A value given as a limit tells only on which side of the number the result lay.

From ChEMBL document CHEMBL3797188, “Piperidine derivatives as nonprostanoid IP receptor agonists 2” (Bioorg Med Chem Lett, 2016) come the findings set out here.

Prostaglandin E2 receptor EP4 subtype, sequence (P35408 whole entry): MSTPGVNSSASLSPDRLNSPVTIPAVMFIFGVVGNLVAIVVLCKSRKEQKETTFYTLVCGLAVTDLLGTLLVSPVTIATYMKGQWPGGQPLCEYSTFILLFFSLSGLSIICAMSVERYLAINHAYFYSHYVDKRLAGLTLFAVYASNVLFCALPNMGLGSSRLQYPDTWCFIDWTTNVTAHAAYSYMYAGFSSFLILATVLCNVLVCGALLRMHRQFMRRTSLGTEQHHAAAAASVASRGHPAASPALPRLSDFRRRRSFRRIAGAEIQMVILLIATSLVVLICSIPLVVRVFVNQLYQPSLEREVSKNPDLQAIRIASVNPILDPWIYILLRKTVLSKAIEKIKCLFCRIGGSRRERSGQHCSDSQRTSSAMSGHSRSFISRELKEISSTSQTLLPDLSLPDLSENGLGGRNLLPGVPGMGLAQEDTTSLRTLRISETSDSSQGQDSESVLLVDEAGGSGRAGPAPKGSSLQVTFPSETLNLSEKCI
Prostacyclin receptor, sequence (P43119 whole entry): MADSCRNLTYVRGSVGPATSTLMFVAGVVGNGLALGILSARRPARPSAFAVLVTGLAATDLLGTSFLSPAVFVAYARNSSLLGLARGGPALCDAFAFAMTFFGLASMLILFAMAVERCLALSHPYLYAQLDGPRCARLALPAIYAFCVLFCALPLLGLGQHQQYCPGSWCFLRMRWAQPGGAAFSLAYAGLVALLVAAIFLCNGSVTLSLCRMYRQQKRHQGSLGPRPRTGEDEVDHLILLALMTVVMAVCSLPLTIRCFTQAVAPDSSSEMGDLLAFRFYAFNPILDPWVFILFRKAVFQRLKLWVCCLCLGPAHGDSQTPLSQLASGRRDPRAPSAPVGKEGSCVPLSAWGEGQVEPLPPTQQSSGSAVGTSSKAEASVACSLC

With `O=C(O)COC1CCN(CCN(C(=O)c2ccccc2)c2ccc(Cl)cc2)CC1`, the IC50 in [1] is 440 nM.
Same read-out and setting: for `Cc1ccc(N(CCN2CCC(OCC(=O)O)CC2)C(=O)c2ccccc2)cc1` the value was 220 nM; for `Cc1ccc(N(CCN2CCC(OCC(=O)O)CC2)C(=O)c2ccc(C(F)(F)F)cc2)cc1`, above 10000 nM; for `COc1ccc(OC)c(C(=O)N(CCN2CCC(OCC(=O)O)CC2)c2ccc(C)cc2)c1`, above 3000 nM.
Same read-out and setting: the figure for `Cc1ccc(N(CCN2CCC(OCC(=O)O)CC2)C(=O)c2cccc(C(F)(F)F)c2)cc1` is 20000 nM.
Take `O=C(O)COC1CCN(CCN(C(=O)c2cccc(C(F)(F)F)c2)c2ccc(Cl)cc2)CC1`: in [1], the IC50 is above 10000 nM.
On to `Cc1ccc(N(CCN2CCC(OCC(=O)O)CC2)C(=O)c2cccc(Cl)c2)cc1`, for which the IC50 in data set [1] came to 100 nM.
The same measure, in the same setting: the figure for `Cc1ccc(N(CCN2CCC(OCC(=O)O)CC2)C(=O)c2ccc(-c3ccccc3)cc2)cc1` is above 10000 nM; for `COc1ccc(C(=O)N(CCN2CCC(OCC(=O)O)CC2)c2ccc(Cl)cc2)cc1` it is 3100 nM.
As to `COc1ccc(C(=O)N(CCN2CCC(OCC(=O)O)CC2)c2ccc(C)cc2)cc1OC`, the IC50 in data set [1] was above 3000 nM.
Same read-out and setting: the figure for `Cc1ccc(N(CCN2CCC(OCC(=O)O)CC2)C(=O)c2ccc(Cl)cc2)cc1` is 690 nM; for `Cc1ccc(N(CCN2CCC(OCC(=O)O)CC2)C(=O)c2ccc(F)cc2)cc1` it is 970 nM; for `O=C(O)COC1CCN(CCN(C(=O)c2ccc(F)cc2)c2ccc(Cl)cc2)CC1` it is 2000 nM.
The same measure, in the same setting: the figure for `O=C(O)COC1CCN(CCN(C(=O)c2cccc(Cl)c2)c2ccc(Cl)cc2)CC1` is 350 nM.
As to `COc1ccc(C(=O)N(CCN2CCC(OCC(=O)O)CC2)c2ccc(C)cc2)cc1`, the IC50 in data set [1] stood at 1200 nM.
The same measure, in the same setting: for `O=C(O)COC1CCN(CCN(C(=O)c2ccc(C(F)(F)F)cc2)c2ccc(Cl)cc2)CC1` the value was above 10000 nM.
The molecule `Cc1ccc(N(CCN2CCC(OCC(=O)O)CC2)C(=O)c2ccc3c(c2)OCO3)cc1.Cl.O` came in with a Cmax in data set [2] of 130 ng/mL. The same molecule came in with a bioavailability in data set [3] of 76%. The Ki was 400 nM at Prostacyclin receptor; above 50000 nM in data set [4]; above 50000 nM in data set [5]; above 50000 nM in data set [6]; above 50000 nM in data set [7]; above 50000 nM at Thromboxane A2 receptor.
For `COc1cccc(C(=O)N(CCN2CCC(OCC(=O)O)CC2)c2ccc(C)cc2)c1`, the IC50 in [1] stood at 32 nM.
On the same count and under the same terms, the figure for `Cc1ccc(N(CCN2CCC(OCC(=O)O)CC2)C(=O)c2ccc3c(c2)OCO3)cc1` is 21 nM; for `Cc1ccc(N(CCN2CCC(OCC(=O)O)CC2)C(=O)c2cccc(C)c2)cc1` it is 160 nM.
Take `COc1cccc(C(=O)N(CCN2CCC(OCC(=O)O)CC2)c2ccc(Cl)cc2)c1`: the IC50 in data set [1] turned out to be 74 nM.
The same measure, in the same setting: the figure for `O=C(O)COC1CCN(CCN(C(=O)c2ccc(-c3ccccc3)cc2)c2ccc(Cl)cc2)CC1` is above 10000 nM; for `Cc1cccc(C(=O)N(CCN2CCC(OCC(=O)O)CC2)c2ccc(Cl)cc2)c1` it is 310 nM; for `O=C(O)COC1CCN(CCN(C(=O)c2cccc(F)c2)c2ccc(Cl)cc2)CC1` it is 340 nM.
For `COc1cccc(C(=O)N(CCN2CCC(OCC(=O)O)CC2)c2ccc(C)cc2)c1OC`, in data set [1], the IC50 was found to be 1600 nM.
Regarding `COc1cc(OC)cc(C(=O)N(CCN2CCC(OCC(=O)O)CC2)c2ccc(C)cc2)c1`, the IC50 in data set [1] is 530 nM.
With `Cc1ccc(N(CCN2CCC(OCC(=O)O)CC2)C(=O)c2cccc(F)c2)cc1`, the IC50 in [1] was 160 nM.
The same measure, in the same setting: for `O=C(O)COC1CCN(CCN(C(=O)c2ccc(Cl)cc2)c2ccc(Cl)cc2)CC1` the value was 1500 nM.

A word on the IC50: it is the concentration at which inhibition is half-maximal. For orientation: Cmax means the highest concentration seen after dosing. The bioavailability is the share of a dose that reaches the circulation, judged against a reference dose that is usually intravenous. The Ki is a measure of affinity in units of concentration, obtained from inhibition or displacement.
